Values joined by “and” are separate entries in the source; they are usually repeats but may differ in a detail not shown here. Equal values may be shown once.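 A five-concentration, 48-hour dose response in 96-well plates underlies each endpoint, interpolated linearly between surrounding concentrations. The concentration for 50% growth inhibition is given as GI50. TGI denotes the concentration required for complete inhibition of growth.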
What was measured:
Experiment in all cases: growth of human tumour cells (NCI), 48 h
COLO 205 colon = system: COLO 205 colon
EKVX NSCLC = system: EKVX NSCLC
HCT-15 colon = system: HCT-15 colon
HOP-92 NSCLC = system: HOP-92 NSCLC
K-562 leukemia = system: K-562 leukemia
KM12 colon = system: KM12 colon
MOLT-4 leukemia = system: MOLT-4 leukemia
OVCAR-3 ovarian = system: OVCAR-3 ovarian
SK-MEL-28 melanoma = system: SK-MEL-28 melanoma
SK-OV-3 ovarian = system: SK-OV-3 ovarian

Structure (SMILES)	TGI (COLO 205 colon)	TGI (EKVX NSCLC)	TGI (HCT-15 colon)	TGI (HOP-92 NSCLC)	TGI (K-562 leukemia)	TGI (KM12 colon)	TGI (MOLT-4 leukemia)	TGI (OVCAR-3 ovarian)	TGI (SK-MEL-28 melanoma)	TGI (SK-OV-3 ovarian)	GI50 (COLO 205 colon)	GI50 (HOP-92 NSCLC)	GI50 (K-562 leukemia)	GI50 (KM12 colon)	GI50 (MOLT-4 leukemia)	GI50 (OVCAR-3 ovarian)	GI50 (SK-MEL-28 melanoma)	GI50 (EKVX NSCLC)	GI50 (HCT-15 colon)	GI50 (SK-OV-3 ovarian)
Nc1ncnc2c1ncn2C1OC(COP(=O)(O)O)C(O)C1O (configuration not stated)	> 50 µM	> 50 µM	> 50 µM	> 46.6 µM	> 50 µM	> 50 µM	> 50 µM	> 50 µM	> 50 µM	> 50 µM										
COc1cc2c(cc1OC)-c1cc3ccccc3c[n+]1CC2	> 100 µM	> 100 µM		> 100 µM	> 100 µM	> 100 µM	> 100 µM	> 100 µM	> 100 µM	> 100 µM										
Cc1ccccc1C(=O)c1c(O)c2c(c(O)c1Br)CCCC2	34.2 µM	34.3 µM	32.9 µM	40 µM	47.8 µM	30.9 µM	31.4 µM	27.1 µM		43.6 µM										
O=[N+]([O-])c1nc(-c2ccccn2)[nH]c1[N+](=O)[O-]	> 100 µM	> 100 µM		> 100 µM	> 100 µM	> 100 µM	> 100 µM	> 100 µM	> 100 µM	> 100 µM										
CCOc1ccc2nc(-c3ccc(O)cc3)sc2c1	> 100 µM	55.2 µM	> 100 µM		> 100 µM	> 100 µM	> 100 µM	> 100 µM		94.3 µM										
C/C=C/[C@H]1O[C@@](O)([C@@H](C)[C@H](O)[C@H](C)[C@H]2OC(=O)/C(OC)=C/C(C)=C/[C@@H](C)[C@@H](O)[C@@H](CC)[C@@H](O)[C@H](C)C/C(C)=C/C=C/[C@@H]2OC)C[C@H](OC2CC(O)C(O)C(C)O2)[C@@H]1C (some centres not stated)	3.96 µM	11.8 µM	8.8 µM	3.69 µM		12 µM	< 0.0075 µM	6.27 µM	14.7 µM	16.9 µM										
O=C(O)c1ccccc1NC(c1ccccc1)c1ccc2cccnc2c1O (configuration not stated)	80.9 µM	> 47.5 µM	> 58.9 µM	> 100 µM	53.3 µM	> 100 µM	34 µM	14.4 µM	44.2 µM	> 100 µM										
N/C(=N\N=C/c1ccccc1O)NO	> 27.4 µM	71.4 µM	> 100 µM	> 67.6 µM	> 77.6 µM	> 100 µM	> 70.2 µM	> 100 µM	> 100 µM	> 87.1 µM										
O=C1OC(c2ccccc2)=N/C1=C\c1cccnc1		> 100 µM	> 100 µM	> 100 µM	> 100 µM	> 100 µM	> 100 µM	> 100 µM	> 100 µM	> 100 µM										
O=C(O)c1cc2ccccc2c(N=Nc2ccccc2)c1O	47.2 µM	96.6 µM	> 100 µM	> 100 µM	> 100 µM	36.4 µM	> 100 µM	> 100 µM	> 100 µM	> 100 µM										
CC(=O)OC1C(C)OC(Oc2c(C)c3c4c(c2O)[C@@H](C)CC[C@@H]4[C@@H](C)C[C@H]3C=C(C)C)C(O)C1O (some centres not stated)	> 100 µM			9.56 µM	5.27 µM	3.66 µM	> 100 µM	3.33 µM			3.98 µM	3.73 µM	2.24 µM	1.87 µM	2.23 µM	1.7 µM				
CC[C@]1(O)C[C@H]2CN(CCc3c([nH]c4ccccc34)[C@@](C(=O)OC)(c3cc4c(cc3OC)N(C=O)[C@H]3[C@@](O)(C(=O)OC)[C@H](OC(C)=O)[C@]5(CC)C=CCN6CC[C@]43[C@@H]65)C2)C1	0.0463 µM and 0.22 µM			1.19 µM and 3.07 µM and 6.57 µM			7.59 µM and 48 µM and 23.3 µM		113 µM		0.00159 µM						0.00464 µM			
CCS(=O)(=O)N1CCC(C(C)n2c(C)c(C(=O)NCc3c(OC)cc(C)[nH]c3=O)c3ccccc32)CC1 (configuration not stated)	> 100 µM	> 100 µM	> 100 µM			> 100 µM		> 100 µM	> 100 µM	> 100 µM	> 100 µM			> 100 µM		> 100 µM	> 100 µM	> 100 µM	> 100 µM	> 100 µM
COC1=C2CC(C)CC(OC)C(O)C(C)/C=C(\C)C(OC(N)=O)C(OC)/C=C\C=C(/C)C(=O)NC(=C(C=NC(C)(C)C)C1=O)C2=O (configuration not stated)	10.6 µM	26 µM	33.1 µM	1.35 µM	6.26 µM	15 µM	12.1 µM	13.2 µM	11.7 µM	67.3 µM										
NC(=O)c1nnc2ccc(F)cc2c1N	> 100 µM	> 100 µM	> 100 µM		> 100 µM	> 100 µM	> 100 µM	> 100 µM		> 100 µM										
C/C(CC/C(C)=N/O)=N\O	> 100 µM	> 100 µM	> 100 µM		> 100 µM	> 100 µM	> 100 µM	> 100 µM	> 100 µM	> 100 µM										

Reference: PubChem BioAssay (NCI)
